The source of these data is PubChem BioAssay AID504532 (Sanford-Burnham Center for Chemical Genomics, 2011).

Molecules are shown by their SMILES. Activity calls are given as the source filed them.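 The calls were made as follows: active = mean EC50 below 10 µM; inactive = the rest.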

The experiment concerns the target Type-1 angiotensin II receptor (Homo sapiens) (UniProt P30556). Nature of the experiment: AGTR1 beta-arrestin recruitment agonism – cell-based, CHO-K1 AGTR1, luminescence, set 5, selectivity assay for APJ receptor agonist project, SAR follow-up (AID 504532). To be noted: CHO-K1 AGTR1 beta-arrestin PathHunter, 90 min.

Chain of Type-1 angiotensin II receptor (Homo sapiens) (P30556 whole entry, looked up): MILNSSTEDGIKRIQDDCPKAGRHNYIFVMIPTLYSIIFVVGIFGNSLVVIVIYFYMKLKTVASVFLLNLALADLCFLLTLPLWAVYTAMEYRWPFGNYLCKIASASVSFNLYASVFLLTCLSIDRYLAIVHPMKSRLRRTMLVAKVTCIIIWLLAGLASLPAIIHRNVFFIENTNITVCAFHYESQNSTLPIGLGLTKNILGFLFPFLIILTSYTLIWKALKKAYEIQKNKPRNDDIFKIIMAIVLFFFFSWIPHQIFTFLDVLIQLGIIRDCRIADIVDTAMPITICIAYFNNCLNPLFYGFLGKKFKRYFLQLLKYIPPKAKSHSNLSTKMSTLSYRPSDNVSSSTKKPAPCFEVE

The term EC50 denotes the concentration giving half of the maximal effect. For the molecule `N#Cc1ccc(S(=O)(=O)ON=C2C=CC(=O)C(c3ccccc3)=C2)cc1`, the EC50 was > 79 µM (inactive). Next, `CC1=CC(=O)C(C2CCCCC2)=C/C1=N/OS(=O)(=O)c1cccc(C)c1`: > 79 µM (inactive); `CC1=CC(=O)C(C(C)C)=C/C1=N\OS(=O)(=O)c1cn(C)cn1`: > 79 µM (inactive). Next, `CC1=CC(=O)C(C(C)C)=C/C1=N\OS(=O)(=O)c1ccccc1Cl`: > 79 µM (inactive); `O=C1C=CC(=NOS(=O)(=O)c2ccccc2)C=C1c1ccccc1`: > 79 µM (inactive); `CC1=CC(=O)C(C2CCCCC2)=C/C1=N\OS(=O)(=O)c1cn(C)cn1`: > 79 µM (inactive). Next, `CC1=CC(=O)C(C(C)C)=C/C1=N\OS(=O)(=O)C1CCCCC1`: > 79 µM (inactive); `CC1=CC(=O)C(C2CCCCC2)=C/C1=N/OS(=O)(=O)c1cccc(Br)c1`: > 79 µM (inactive); `Cc1cc(O)c(C(C)(C)C)cc1N=O`: > 79 µM (inactive). With `CC1=CC(=O)C(C(C)(C)C)=C/C1=N/OS(=O)(=O)c1cccc(C)c1`, the EC50 was > 79 µM (inactive). Next, `CC1=CC(=O)C(C(C)C)=C/C1=N\OS(=O)(=O)c1c(Cl)cccc1Cl`: > 79 µM (inactive); `CC1=CC(=O)C(C(C)(C)C)=C/C1=N\OS(=O)(=O)c1cccc(Cl)c1`: > 79 µM (inactive); `CC1=CC(=O)C(C(C)C)=C/C1=N\OS(=O)(=O)c1cccc(Cl)c1`: > 79 µM (inactive).

For `Cc1cc(N=O)c(C(C)C)cc1O`, the EC50 is > 79 µM (inactive). Next, `CC1=CC(=O)C(C(C)(C)C)=C/C1=N/OS(=O)(=O)c1cccc(Br)c1`: > 79 µM (inactive); `CC1=CC(=O)C(C(C)(C)C)=C/C1=N\OS(=O)(=O)c1c(Cl)cccc1Cl`: > 79 µM (inactive).

`CC1=CC(=O)C(C2CCCCC2)=C/C1=N/OS(=O)(=O)c1cccc(C#N)c1`: the EC50 was > 79 µM (inactive). The result for `COc1cccc(S(=O)(=O)O/N=C2\C=C(C(C)C)C(=O)C=C2C)c1` reads > 79 µM (inactive).

Take `CC1=CC(=O)C(C(C)C)=C/C1=N/OS(=O)(=O)c1cccc(C#N)c1`: the EC50 is > 79 µM (inactive).

`CC1=CC(=O)C(C2CCCCC2)=C/C1=N\OS(=O)(=O)c1cccc(Cl)c1`: the EC50 was > 79 µM (inactive). Next, `COc1cccc(S(=O)(=O)O/N=C2\C=C(C3CCCCC3)C(=O)C=C2C)c1`: > 79 µM (inactive); `CC1=CC(=O)C(C(C)C)=C/C1=N/OS(=O)(=O)c1cccc(C)c1`: > 79 µM (inactive). Next, `CC(C)C1=CC(=NOS(=O)(=O)c2ccccc2)C=CC1=O`: > 79 µM (inactive). Next, `CC1=CC(=O)C(C(C)(C)C)=C/C1=N/OS(=O)(=O)c1cccc(C#N)c1`: > 79 µM (inactive).

Turning to `COc1cccc(S(=O)(=O)O/N=C2\C=C(C(C)(C)C)C(=O)C=C2C)c1`, the EC50 is > 79 µM (inactive). Next, `CC1=CC(=O)C(C(C)(C)C)=C/C1=N\OS(=O)(=O)c1ccccc1Cl`: > 79 µM (inactive); `CC1=CC(=O)C(C2CCCCC2)=C/C1=N\OS(=O)(=O)c1ccccc1Cl`: > 79 µM (inactive). Consider `CC1=CC(=O)C(C(C)C)=C/C1=N/OS(=O)(=O)c1cccc(Br)c1`, for which the EC50 was > 79 µM (inactive). Next, `CC1=CC(=O)C(C(C)(C)C)=C/C1=N\OS(=O)(=O)C1CCCCC1`: > 79 µM (inactive). Next, `CC1=CC(=O)C(C2CCCCC2)=C/C1=N\OS(=O)(=O)c1c(Cl)cccc1Cl`: > 79 µM (inactive); `CC1=CC(=O)C(C(C)(C)C)=C/C1=N\OS(=O)(=O)c1cn(C)cn1`: > 79 µM (inactive).
